# Measured values as given in US8871767B2, “2-arylimidazo[1,2-B]pyridazine, 2-phenylimidazo[1,2-A]pyridine, and 2-phenylimidazo[1,2-A]pyrazine derivatives” (Hengrui (USA) Ltd., priority 2010, dated 2014).
# Read-outs that look alike come from different tables or passages of the source.
# Assays:
# [1] = tested on: Hedgehog pathway activation on 10T1/2/Smo#3 cells (C3H10T1/2 cells transfected with human Smoothened receptor); assay: Hedgehog pathway activation on 10T1/2/Smo#3 cells measured by ALP activity; assay type: cell-based; settings: Mus musculus, C3H 10T1/2, 10T1/2/Smo#3 cells
# Method in brief: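 C3H10T1/2 cells stably expressing human Smoothened were activated with hShh-conditioned medium (10-20%) or 500 nM SAG, with test compounds present. Pathway block read as inhibited ALP activity (4-methylumbelliferyl phosphate fluorescence); viability checked by CellTiter-Blue. IC50 values reported.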
# [2] = tested on: Hedgehog pathway activation (GLi-luciferase reporter) in Shh Light II reporter cells; assay: Hedgehog pathway activation on Shh Light II reporter cells measured by luciferase activity; assay type: cell-based; settings: Mus musculus, Shh Light II
# Method in brief: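 Shh Light II reporter cells carrying a hedgehog-responsive GLi-luciferase reporter were stimulated either with 500 nM SAG, a direct Smoothened agonist, or with conditioned media containing human Sonic Hedgehog (hShh). Test compounds were evaluated for blocking this pathway activation, quantified by luciferase activity. Cell viability was monitored in parallel with the Celltiter-Blue® assay.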
# [3] = hShh activation, ALP activity, read-out: 10T1/2/Smo#3 ALP activity (hShh Activation)
# [4] = measured by ALP activity, read-out: ALP (IC50, inhibition of Hedgehog pathway activation)
# [5] = SAG activation (500 nM SAG), read-out: Shh Light II luciferase activity (SAG activation)
# [6] = hShh activation, read-out: Shh (IC50, inhibition of Hedgehog pathway activation)
# [7] = hShh activation, read-out: Shh Light II luciferase activity (hShh activation)
SMILES,"IC50 [1, 3]","IC50 [1, 4]","IC50 [2, 5]","IC50 [2, 6]","IC50 [2, 7]"
"CCOc1ccc2nc(-c3ccc(CC)c(NC(=O)C(C)(C)C)c3)cn2n1 [Example 283, N-(5-(6-ethoxyimidazo[1,2-b]pyridazin-2-yl)-2-ethylphenyl)pivalamide]",300 to 3000 nM,1820 nM,3000 to 30000 nM,2230 nM,300 to 3000 nM
"Cc1ccc(-c2cn3nc(N4CCS(=O)(=O)CC4)ccc3n2)cc1NC(=O)C(C)(C)C [Example 285, N-{5-[6-(1,1-dioxidothiomorpholin-4-yl)imidazo[1,2-b]pyridazin-2-yl]-2-methylphenyl}-2,2-dimethylpropanamide]",,1010 nM,,788 nM,
"CC(C)(C)C(=O)Nc1cc(-c2cn3nc(N4CCS(=O)(=O)CC4)ccc3n2)ccc1C(F)(F)F [Example 287, N-{5-[6-(1,1-dioxidothiomorpholin-4-yl)imidazo[1,2-b]pyridazin-2-yl]-2-(trifluoromethyl)phenyl}-2,2-dimethylpropanamide]",,462 nM,,491 nM,
"CC(C)(C)C(=O)Nc1cc(-c2cn3nc(N4CCCCC4)ccc3n2)ccc1C(F)(F)F [Example 288, N-(5-(6-(piperidin-1-yl)imidazo[1,2-b]pyridazin-2-yl)-2-(trifluoromethyl)phenyl)pivalamide]",,258 nM,,345 nM,
"CC(C)(C)OC(=O)NC1CCN(c2ccc3nc(-c4ccc(C(F)(F)F)c(NC(=O)C(C)(C)C)c4)cn3n2)C1 (stereo not shown) [Example 297, tert-butyl 1-(2-(3-pivalamido-4-(trifluoromethyl)phenyl)imidazo[1,2-b]pyridazin-6-yl)pyrrolidin-3-ylcarbamate]",,463 nM,,452 nM,
"CN1CCC(Oc2ccc3nc(-c4ccc(C(F)(F)F)c(NC(=O)C(C)(C)C)c4)cn3n2)CC1 [Example 305, N-(5-(6-(1-methylpiperidin-4-yloxy)imidazo[1,2-b]pyridazin-2-yl)-2-(trifluoromethyl)phenyl)pivalamide]",,3500 nM,,1890 nM,
"CC(C)(C)C(=O)Nc1cc(-c2cn3nc(OCCN4CCOCC4)ccc3n2)ccc1C(F)(F)F [Example 306, N-(5-(6-(2-morpholinoethoxy)imidazo[1,2-b]pyridazin-2-yl)-2-(trifluoromethyl)phenyl)pivalamide]",,446 nM,,402 nM,
"CC1CCCCC1Oc1ccc2nc(-c3ccc(C(F)(F)F)c(NC(=O)C(C)(C)C)c3)cn2n1 (stereo not shown) [Example 307, N-(5-(6-(2-methylcyclohexyloxy)imidazo[1,2-b]pyridazin-2-yl)-2-(trifluoromethyl)phenyl)pivalamide]",,400 nM,,352 nM,
"C[C@H]1CCCC[C@H]1Oc1ccc2nc(-c3ccc(C(F)(F)F)c(NC(=O)C(C)(C)C)c3)cn2n1 [Example 308, N-(5-(6-((1R,2S)-2-methylcyclohexyloxy)imidazo[1,2-b]pyridazin-2-yl)-2-(trifluoromethyl)phenyl)pivalamide]",,1200 nM,,1070 nM,
"CC(C)(C)C(=O)Nc1cc(-c2cn3nc(OCCN4CCCCC4)ccc3n2)ccc1C(F)(F)F [Example 309, N-(5-(6-(2-(piperidin-1-yl)ethoxy)imidazo[1,2-b]pyridazin-2-yl)-2-(trifluoromethyl)phenyl)pivalamide]",,973 nM,,339 nM,
"CC(C)(C)C(=O)Nc1cc(-c2cn3nc(OC4CCOCC4)ccc3n2)ccc1C(F)(F)F [Example 310, N-(5-(6-(tetrahydro-2H-pyran-4-yloxy)imidazo[1,2-b]pyridazin-2-yl)-2-(trifluoromethyl)phenyl)pivalamide]",,1780 nM,,721 nM,
"Cc1ccc(-c2nc3ccc(Cl)nn3c2C)cc1NC(=O)C(C)(C)C [Example 311, N-(5-(6-chloro-3-methylimidazo[1,2-b]pyridazin-2-yl)-2-methylphenyl)pivalamide]",,2420 nM,,2080 nM,

# Now from value to compound:
"IC50 [1, 3]","IC50 [1, 4]","IC50 [2, 5]","IC50 [2, 6]","IC50 [2, 7]",SMILES
< 300 nM,29 nM,< 300 nM,57 nM,< 300 nM,"Cc1ccc(-c2cn3nc(-c4cccnc4C(F)(F)F)ccc3n2)cc1NC(=O)C(C)(C)C [Example 284, N-(2-methyl-5-(6-(2-(trifluoromethyl)pyridin-3-yl)imidazo[1,2-b]pyridazin-2-yl)phenyl)pivalamide]"
,127 nM,,193 nM,,"Cc1ccc(-c2cn3nc(N4CCC(O)CC4)ccc3n2)cc1NC(=O)C(C)(C)C [Example 286, N-(5-(6-(4-hydroxypiperidin-1-yl)imidazo[1,2-b]pyridazin-2-yl)-2-methylphenyl)pivalamide]"
,90 nM,,284 nM,,"CC(=O)Nc1ccccc1-c1ccc2nc(-c3ccc(C)c(NC(=O)C(C)(C)C)c3)cn2n1 [Example 289, N-(5-(6-(2-acetamidophenyl)imidazo[1,2-b]pyridazin-2-yl)-2-methylphenyl)pivalamide]"
,296 nM,,321 nM,,"Cc1ccc(-c2cn3nc(-c4cccc(N(C)C)c4)ccc3n2)cc1NC(=O)C(C)(C)C [Example 290, N-(5-(6-(3-(dimethylamino)phenyl)imidazo[1,2-b]pyridazin-2-yl)-2-methylphenyl)pivalamide]"
,325 nM,,289 nM,,"CC(C)(C)C(=O)Nc1cc(-c2cn3nc(-c4cc(F)ccc4C(F)(F)F)ccc3n2)ccc1C(F)(F)F [Example 291, N-(5-(6-(5-fluoro-2-(trifluoromethyl)phenyl)imidazo[1,2-b]pyridazin-2-yl)-2-(trifluoromethyl)phenyl)pivalamide]"
,19 nM,,47 nM,,"CC(C)(C)C(=O)Nc1cc(-c2cn3nc(-c4cccnc4C(F)(F)F)ccc3n2)ccc1C(F)(F)F [Example 292, N-(2-(trifluoromethyl)-5-(6-(2-(trifluoromethyl)pyridin-3-yl)imidazo[1,2-b]pyridazin-2-yl)phenyl)pivalamide]"
,221 nM,,310 nM,,"Cc1ncccc1-c1ccc2nc(-c3ccc(C(F)(F)F)c(NC(=O)C(C)(C)C)c3)cn2n1 [Example 293, N-(5-(6-(2-methylpyridin-3-yl)imidazo[1,2-b]pyridazin-2-yl)-2-(trifluoromethyl)phenyl)pivalamide]"
,254 nM,,256 nM,,"CC1CCCCN1c1ccc2nc(-c3ccc(C(F)(F)F)c(NC(=O)C(C)(C)C)c3)cn2n1 (stereo not shown) [Example 294, N-(5-(6-(2-methylpiperidin-1-yl)imidazo[1,2-b]pyridazin-2-yl)-2-(trifluoromethyl)phenyl)pivalamide]"
< 300 nM,326 nM,300 to 3000 nM,320 nM,< 300 nM,"CCc1ccc(-c2cn3nc(-c4ccccc4F)ccc3n2)cc1NC(=O)C(C)(C)C [Example 295, N-(2-ethyl-5-(6-(2-fluorophenyl)imidazo[1,2-b]pyridazin-2-yl)phenyl)pivalamide]"
,226 nM,,311 nM,,"CCc1ccc(-c2cn3nc(-c4ccccc4C#N)ccc3n2)cc1NC(=O)C(C)(C)C [Example 296, N-(5-(6-(2-cyanophenyl)imidazo[1,2-b]pyridazin-2-yl)-2-ethylphenyl)pivalamide]"
,612 nM,,403 nM,,"CN(CCO)c1ccc2nc(-c3ccc(C(F)(F)F)c(NC(=O)C(C)(C)C)c3)cn2n1 [Example 298, N-(5-(6-((2-hydroxyethyl)(methyl)amino)imidazo[1,2-b]pyridazin-2-yl)-2-(trifluoromethyl)phenyl)pivalamide]"
,478 nM,,338 nM,,"COCCN(C)c1ccc2nc(-c3ccc(C(F)(F)F)c(NC(=O)C(C)(C)C)c3)cn2n1 [Example 299, N-(5-(6-((2-methoxyethyl)(methyl)amino)imidazo[1,2-b]pyridazin-2-yl)-2-(trifluoromethyl)phenyl)pivalamide]"
300 to 3000 nM,703 nM,< 300 nM,535 nM,300 to 3000 nM,"CSCCNc1ccc2nc(-c3ccc(C(F)(F)F)c(NC(=O)C(C)(C)C)c3)cn2n1 [Example 300, N-(5-(6-(2-(methylthio)ethylamino)imidazo[1,2-b]pyridazin-2-yl)-2-(trifluoromethyl)phenyl)pivalamide]"
,1060 nM,,406 nM,,"CC(C)(C)C(=O)Nc1cc(-c2cn3nc(NC4CCCC4)ccc3n2)ccc1C(F)(F)F [Example 301, N-(5-(6-(cyclopentylamino)imidazo[1,2-b]pyridazin-2-yl)-2-(trifluoromethyl)phenyl)pivalamide]"
,443 nM,,522 nM,,"CC(C)CNc1ccc2nc(-c3ccc(C(F)(F)F)c(NC(=O)C(C)(C)C)c3)cn2n1 [Example 302, N-(5-(6-(isobutylamino)imidazo[1,2-b]pyridazin-2-yl)-2-(trifluoromethyl)phenyl)pivalamide]"
300 to 3000 nM,783 nM,300 to 3000 nM,994 nM,300 to 3000 nM,"CCC(CO)Nc1ccc2nc(-c3ccc(C(F)(F)F)c(NC(=O)C(C)(C)C)c3)cn2n1 (stereo not shown) [Example 303, N-(5-(6-(1-hydroxybutan-2-ylamino)imidazo[1,2-b]pyridazin-2-yl)-2-(trifluoromethyl)phenyl)pivalamide]"
,393 nM,,559 nM,,"CC(C)(C)C(=O)Nc1cc(-c2cn3nc(NCCO)ccc3n2)ccc1C(F)(F)F [Example 304, N-(5-(6-(2-hydroxyethylamino)imidazo[1,2-b]pyridazin-2-yl)-2-(trifluoromethyl)phenyl)pivalamide]"
